In ChEMBL document CHEMBL1138895, “Synthesis and antibacterial activity of nocathiacin I analogues” (Bioorg Med Chem Lett, 2006):
Converted amounts (≈) assume the structure as drawn.

Assays:
[1] = test system: Enterococcus faecalis; assay: Antibacterial activity against […] A20688; assay type: functional
[2] = organism: Mus musculus; assay: Activity against Staphylococcus aureus A15090 infected ICR mouse after 8 days; assay type: functional; details: 192 h, read-out: PD50
[3] = test system: Streptococcus pneumoniae; assay: Antibacterial activity against penicillin resistant Streptococcus pneumoniae A28272; assay type: functional
[4] = Solubility at pH 3.1; assay type: physicochemical; details: buffer
[5] = test system: Staphylococcus aureus; assay: Antibacterial activity against methicillin-sensitive Staphylococcus aureus A15090; assay type: functional
[6] = Solubility at pH 7.4; assay type: physicochemical; details: buffer
[7] = Solubility at pH 3.0; assay type: physicochemical; details: buffer
[8] = Solubility at pH 3.2; assay type: physicochemical; details: buffer
[9] = Solubility at pH 2.9; assay type: physicochemical; details: buffer

SMILES	MIC [1] [µg/mL]	ED50 [2] [mg/kg]	MIC [3] [µg/mL]	solubility [4] [µg/mL]	MIC [5] [µg/mL]	solubility [6] [µg/mL]	solubility [7] [µg/mL]	solubility [8] [µg/mL]	solubility [9] [µg/mL]
CO/C(C)=C1/NC(=O)[C@H]([C@@H](C)O)NC(=O)c2csc(n2)-c2cc(O)c(-c3nc(C(=O)N[C@@H](C)C(=O)NCCO)cs3)nc2-c2csc(n2)[C@@H]2COC(=O)c3c4c5c(cccc5n3O)COC(=O)[C@@H](O[C@H]3C[C@](C)(O)[C@H](N(C)C)[C@H](C)O3)[C@@H](OC4)[C@H](NC(=O)c3csc1n3)c1nc(cs1)C(=O)N2	0.5 (≈ 0.337 µM)	1.44	0.001 (≈ 0.000674 µM)	1300 (≈ 876 µM)	0.03 (≈ 0.0202 µM)	–	–	–	–
CO/C(C)=C1/NC(=O)[C@H]([C@@H](C)O)NC(=O)c2csc(n2)-c2cc(O)c(-c3nc(C(=O)N[C@@H](C)C(N)=O)cs3)nc2-c2csc(n2)[C@@H]2COC(=O)c3c4c5c(cccc5n3O)COC(=O)[C@@H](O[C@H]3C[C@](C)(O)[C@H](N(C)C)[C@H](C)O3)[C@@H](OC4)[C@H](NC(=O)c3csc1n3)c1nc(cs1)C(=O)N2	2 (≈ 1.39 µM)	1.65	0.06 (≈ 0.0417 µM)	700 (≈ 486 µM)	0.25 (≈ 0.174 µM)	–	–	–	–
CO/C(C)=C1/NC(=O)[C@H]([C@@H](C)O)NC(=O)c2csc(n2)-c2cc(O)c(-c3nc(C(=O)N[C@@H](C)C(=O)NCc4ccc(CP(=O)(O)O)cc4)cs3)nc2-c2csc(n2)[C@@H]2COC(=O)c3c4c5c(cccc5n3O)COC(=O)[C@@H](O[C@H]3C[C@](C)(O)[C@H](N(C)C)[C@H](C)O3)[C@@H](OC4)[C@H](NC(=O)c3csc1n3)c1nc(cs1)C(=O)N2	2 (≈ 1.23 µM)	> 10	0.25 (≈ 0.154 µM)	–	1 (≈ 0.616 µM)	> 2600	–	–	–
CO/C(C)=C1/NC(=O)[C@H]([C@@H](C)O)NC(=O)c2csc(n2)-c2cc(O)c(-c3nc(C(=O)N[C@@H](C)C(=O)N4CCC[C@H]4CO)cs3)nc2-c2csc(n2)[C@@H]2COC(=O)c3c4c5c(cccc5n3O)COC(=O)[C@@H](O[C@H]3C[C@](C)(O)[C@H](N(C)C)[C@H](C)O3)[C@@H](OC4)[C@H](NC(=O)c3csc1n3)c1nc(cs1)C(=O)N2	0.25 (≈ 0.164 µM)	2.18	0.015 (≈ 0.00984 µM)	2200 (≈ 1440 µM)	0.03 (≈ 0.0197 µM)	–	–	–	–
CO/C(C)=C1/NC(=O)[C@H]([C@@H](C)O)NC(=O)c2csc(n2)-c2cc(O)c(-c3nc(C(=O)N[C@@H](C)C(=O)NCCOCCO)cs3)nc2-c2csc(n2)[C@@H]2COC(=O)c3c4c5c(cccc5n3O)COC(=O)[C@@H](O[C@H]3C[C@](C)(O)[C@H](N(C)C)[C@H](C)O3)[C@@H](OC4)[C@H](NC(=O)c3csc1n3)c1nc(cs1)C(=O)N2	0.25 (≈ 0.164 µM)	1	0.015 (≈ 0.00982 µM)	> 2900	0.03 (≈ 0.0196 µM)	–	–	–	–
CO/C(C)=C1/NC(=O)[C@H]([C@@H](C)O)NC(=O)c2csc(n2)-c2cc(O)c(-c3nc(C(=O)N[C@@H](C)C(=O)NCCc4ccncc4)cs3)nc2-c2csc(n2)[C@@H]2COC(=O)c3c4c5c(cccc5n3O)COC(=O)[C@@H](O[C@H]3C[C@](C)(O)[C@H](N(C)C)[C@H](C)O3)[C@@H](OC4)[C@H](NC(=O)c3csc1n3)c1nc(cs1)C(=O)N2	0.06 (≈ 0.0388 µM)	3.3	0.015 (≈ 0.00971 µM)	–	0.125 (≈ 0.0809 µM)	–	> 3400	–	–
CO/C(C)=C1/NC(=O)[C@H]([C@@H](C)O)NC(=O)c2csc(n2)-c2cc(O)c(-c3nc(C(=O)N[C@@H](C)C(=O)NCCOP(=O)([O-])[O-])cs3)nc2-c2csc(n2)[C@@H]2COC(=O)c3c4c5c(cccc5n3O)COC(=O)[C@@H](O[C@H]3C[C@](C)(O)[C@H](N(C)C)[C@H](C)O3)[C@@H](OC4)[C@H](NC(=O)c3csc1n3)c1nc(cs1)C(=O)N2.[Na+].[Na+]	16	1.65	0.5	–	8	> 4800	–	–	–
CO/C(C)=C1/NC(=O)[C@H]([C@@H](C)O)NC(=O)c2csc(n2)-c2cc(O)c(-c3nc(C(=O)N[C@@H](C)C(=O)NC[C@H](O)CO)cs3)nc2-c2csc(n2)[C@@H]2COC(=O)c3c4c5c(cccc5n3O)COC(=O)[C@@H](O[C@H]3C[C@](C)(O)[C@H](N(C)C)[C@H](C)O3)[C@@H](OC4)[C@H](NC(=O)c3csc1n3)c1nc(cs1)C(=O)N2	0.25 (≈ 0.165 µM)	5	0.03 (≈ 0.0198 µM)	> 2200	0.25 (≈ 0.165 µM)	–	–	–	–
CO/C(C)=C1/NC(=O)[C@H]([C@@H](C)O)NC(=O)c2csc(n2)-c2cc(O)c(-c3nc(C(=O)N[C@@H](C)C(=O)N[C@@H]4[C@@H](O)[C@H](O)[C@@H](CO)O[C@H]4O)cs3)nc2-c2csc(n2)[C@@H]2COC(=O)c3c4c5c(cccc5n3O)COC(=O)[C@@H](O[C@H]3C[C@](C)(O)[C@H](N(C)C)[C@H](C)O3)[C@@H](OC4)[C@H](NC(=O)c3csc1n3)c1nc(cs1)C(=O)N2	0.5 (≈ 0.312 µM)	> 10	0.06 (≈ 0.0375 µM)	> 2200	1 (≈ 0.624 µM)	–	–	–	–
CO/C(C)=C1/NC(=O)[C@H]([C@@H](C)O)NC(=O)c2csc(n2)-c2cc(O)c(-c3nc(C(=O)N[C@@H](C)C(=O)NCc4ccc(O)cc4)cs3)nc2-c2csc(n2)[C@@H]2COC(=O)c3c4c5c(cccc5n3O)COC(=O)[C@@H](O[C@H]3C[C@](C)(O)[C@H](N(C)C)[C@H](C)O3)[C@@H](OC4)[C@H](NC(=O)c3csc1n3)c1nc(cs1)C(=O)N2	0.03 (≈ 0.0194 µM)	4.35	0.007 (≈ 0.00453 µM)	480 (≈ 311 µM)	0.007 (≈ 0.00453 µM)	–	–	–	–
CO/C(C)=C1/NC(=O)[C@H]([C@@H](C)O)NC(=O)c2csc(n2)-c2cc(O)c(-c3nc(C(=O)N[C@@H](C)C(=O)NC(CC(=O)O)C(=O)O)cs3)nc2-c2csc(n2)[C@@H]2COC(=O)c3c4c5c(cccc5n3O)COC(=O)[C@@H](O[C@H]3C[C@](C)(O)[C@H](N(C)C)[C@H](C)O3)[C@@H](OC4)[C@H](NC(=O)c3csc1n3)c1nc(cs1)C(=O)N2 (some centres undefined)	16 (≈ 10.3 µM)	–	0.25 (≈ 0.161 µM)	–	16 (≈ 10.3 µM)	–	–	–	–
CO/C(C)=C1/NC(=O)[C@H]([C@@H](C)O)NC(=O)c2csc(n2)-c2cc(O)c(-c3nc(C(=O)N[C@@H](C)C(=O)NCCc4ccc(O)c(O)c4)cs3)nc2-c2csc(n2)[C@@H]2COC(=O)c3c4c5c(cccc5n3O)COC(=O)[C@@H](O[C@H]3C[C@](C)(O)[C@H](N(C)C)[C@H](C)O3)[C@@H](OC4)[C@H](NC(=O)c3csc1n3)c1nc(cs1)C(=O)N2	0.5 (≈ 0.317 µM)	> 10	0.125 (≈ 0.0793 µM)	–	0.25 (≈ 0.159 µM)	–	7 (≈ 4.44 µM)	–	–
CO/C(C)=C1/NC(=O)[C@H]([C@@H](C)O)NC(=O)c2csc(n2)-c2cc(O)c(-c3nc(C(=O)N[C@@H](C)C(=O)N(C)C[C@@H](O)[C@@H](O)[C@@H](O)[C@@H](O)CO)cs3)nc2-c2csc(n2)[C@@H]2COC(=O)c3c4c5c(cccc5n3O)COC(=O)[C@@H](O[C@H]3C[C@](C)(O)[C@H](N(C)C)[C@H](C)O3)[C@@H](OC4)[C@H](NC(=O)c3csc1n3)c1nc(cs1)C(=O)N2	0.5 (≈ 0.309 µM)	–	0.015 (≈ 0.00927 µM)	–	0.125 (≈ 0.0773 µM)	–	–	> 2400	–
CO/C(C)=C1/NC(=O)[C@H]([C@@H](C)O)NC(=O)c2csc(n2)-c2cc(O)c(-c3nc(C(=O)N[C@@H](C)C(=O)N4CCC(O)CC4)cs3)nc2-c2csc(n2)[C@@H]2COC(=O)c3c4c5c(cccc5n3O)COC(=O)[C@@H](O[C@H]3C[C@](C)(O)[C@H](N(C)C)[C@H](C)O3)[C@@H](OC4)[C@H](NC(=O)c3csc1n3)c1nc(cs1)C(=O)N2	0.06 (≈ 0.0394 µM)	4.35	0.003 (≈ 0.00197 µM)	–	0.007 (≈ 0.00459 µM)	–	–	1100 (≈ 722 µM)	–
CO/C(C)=C1/NC(=O)[C@H]([C@@H](C)O)NC(=O)c2csc(n2)-c2cc(O)c(-c3nc(C(=O)N[C@@H](C)C(=O)NCCc4cc(O)cc(O)c4)cs3)nc2-c2csc(n2)[C@@H]2COC(=O)c3c4c5c(cccc5n3O)COC(=O)[C@@H](O[C@H]3C[C@](C)(O)[C@H](N(C)C)[C@H](C)O3)[C@@H](OC4)[C@H](NC(=O)c3csc1n3)c1nc(cs1)C(=O)N2	0.5 (≈ 0.317 µM)	> 10	0.06 (≈ 0.0381 µM)	–	0.25 (≈ 0.159 µM)	–	20 (≈ 12.7 µM)	–	–
CO/C(C)=C1/NC(=O)[C@H]([C@@H](C)O)NC(=O)c2csc(n2)-c2cc(O)c(-c3nc(C(=O)N[C@@H](C)C(=O)NCc4ccc(O)c(O)c4)cs3)nc2-c2csc(n2)[C@@H]2COC(=O)c3c4c5c(cccc5n3O)COC(=O)[C@@H](O[C@H]3C[C@](C)(O)[C@H](N(C)C)[C@H](C)O3)[C@@H](OC4)[C@H](NC(=O)c3csc1n3)c1nc(cs1)C(=O)N2	0.06 (≈ 0.0384 µM)	> 10	0.007 (≈ 0.00448 µM)	–	0.03 (≈ 0.0192 µM)	–	–	–	20 (≈ 12.8 µM)
CO/C(C)=C1/NC(=O)[C@H]([C@@H](C)O)NC(=O)c2csc(n2)-c2cc(O)c(-c3nc(C(=O)N[C@@H](C)C(=O)NCCc4ccc(O)cc4)cs3)nc2-c2csc(n2)[C@@H]2COC(=O)c3c4c5c(cccc5n3O)COC(=O)[C@@H](O[C@H]3C[C@](C)(O)[C@H](N(C)C)[C@H](C)O3)[C@@H](OC4)[C@H](NC(=O)c3csc1n3)c1nc(cs1)C(=O)N2	0.007 (≈ 0.00449 µM)	> 10	0.0005 (≈ 0.000321 µM)	–	0.003 (≈ 0.00192 µM)	–	–	120 (≈ 76.9 µM)	–
CO/C(C)=C1/NC(=O)[C@H]([C@@H](C)O)NC(=O)c2csc(n2)-c2cc(O)c(-c3nc(C(=O)N[C@@H](C)C(=O)NCCOCCOCCOCCOCCOCCOC4O[C@H](CO)[C@@H](O)[C@H](O)[C@H]4O)cs3)nc2-c2csc(n2)[C@@H]2COC(=O)c3c4c5c(cccc5n3O)COC(=O)[C@@H](O[C@H]3C[C@](C)(O)[C@H](N(C)C)[C@H](C)O3)[C@@H](OC4)[C@H](NC(=O)c3csc1n3)c1nc(cs1)C(=O)N2 (some centres undefined)	8 (≈ 4.29 µM)	–	1 (≈ 0.536 µM)	–	4 (≈ 2.14 µM)	–	–	–	> 3700
COCCOCCOCCOCCNC(=O)[C@H](C)NC(=O)c1csc(-c2nc3c(cc2O)-c2nc(cs2)C(=O)N[C@@H]([C@@H](C)O)C(=O)N/C(=C(\C)OC)c2nc(cs2)C(=O)N[C@@H]2c4nc(cs4)C(=O)N[C@@H](COC(=O)c4c5c6c(cccc6n4O)COC(=O)[C@@H](O[C@H]4C[C@](C)(O)[C@H](N(C)C)[C@H](C)O4)[C@H]2OC5)c2nc-3cs2)n1	0.5 (≈ 0.307 µM)	–	0.003 (≈ 0.00184 µM)	–	0.06 (≈ 0.0368 µM)	–	–	–	–
